Legend:
Format in all cases: cell-based, human
[1] = system: BXPC3 cells; test: MTT assay of BXPC3 cultures, single 50 μM dose; set-up: MTT assay result, run 1 / MTT assay result, run 2 / MTT assay result, run 3 / MTT assay result, run 4 / MTT assay result, run 5 / MTT assay result, run 6 / MTT assay result, run 7 / MTT assay result, av (average) / MTT assay result, av-blank / MTT assay result, av: unit not given here; settings: BXPC3, 50 μM; for MTT assay result, av-blank: average minus blank
Experimental: (§1) BXPC3 cells were cultured in complete […] media containing 10% fetal bovine serum (FBS) and 1% penicillin-streptomycin, and 1% L-glutamine. BxPc-3 pancreatic cancer cells were cultured in complete RPMI media containing 10% fetal bovine serum (FBS), and 1% penicillin-streptomycin, 1% HEPES buffer, 1% sodium pyruvate and 1% L-glutamine HPDE6-C7 cells were cultured in serum-free keratinocyte SFM media. All cells were maintained at 37° C. in a humidified incubator with 5% CO2. The cells were treated with a single 50 μM dose of vehicle (vehicle only, may be a solvent), T3 alpha (alpha tocotrienol), T3 beta (beta tocotrienol), T3 gamma (gamma tocotrienol), T3 delta (delta tocotrienol), T alpha (alpha tocopherol), T beta (beta tocopherol), TS (tocopherol succinate), GG (geranylgeraniol), SA (succinic acid). A control (no treatment) culture was grown alongside the treatments for comparison. Cell viability was measured using MTT assay at preselect times of 48 or 120 hours after treatment.

[2] = system: SW1990 pancreatic cancer cells; test: MTS assay of SW1990 cultures, single 50 μM dose; settings: SW1990, 50 μM
Experimental: SW1990 pancreatic cancer cells […] were cultured in complete DMEM media containing 10% fetal bovine serum (FBS) and 1% penicillin-streptomycin, and 1% L-glutamine. BxPc-3 pancreatic cancer cells were cultured in complete RPMI media containing 10% fetal bovine serum (FBS), and 1% penicillin-streptomycin, 1% HEPES buffer, 1% sodium pyruvate and 1% L-glutamine. HPDE6-C7 cells were cultured in serum-free keratinocyte SFM media. All cells were maintained at 37° C. in a humidified incubator with 5% CO2. The cells were treated with a single 50 μM dose of vehicle (ethanol extracted olive oil), T3 alpha (alpha tocotrienol), T3 beta (beta tocotrienol), T3 gamma (gamma tocotrienol), T3 delta (delta tocotrienol), T alpha (alpha tocopherol), T beta (beta tocopherol), TS (tocopherol succinate), GG (geranylgeraniol), SA (succinic acid). A control culture (i.e., only vehicle with no treatment) was grown alongside the treatments for comparison. Cell viability was measured using MTS assay at preselect times of 24, 48, or 72 hours after treatment.

[3] = system: MiaPaCa-2 cells; test: MTS assay of MiaPaCa2 cultures, single 50 μM dose; settings: MiaPaCa2, 50 μM
Experimental: as §1, with “MiaPaCa-2” for “BXPC3”, “Cell viability was measured using MTT assay at preselect times of 48 or 120 hours after treatment.” left out

CC(C)=CCC/C(C)=C/CC/C(C)=C/CC[C@]1(C)CCc2c(C)c(O)cc(C)c2O1 [T3 beta, beta tocotrienol]
rel amt (relative value set to the control) ([1]; 48 hours): 95 | MTT assay result, av-blank ([1]; 48 hours): 0.216 | MTT assay result, av (average) ([1]; 48 hours, average of 7 runs): 0.265 | MTT assay result, run 1 ([1]; 48 hours): 0.263 | MTT assay result, run 2 ([1]; 48 hours): 0.261 | MTT assay result, run 3 ([1]; 48 hours): 0.27 | MTT assay result, run 4 ([1]; 48 hours): 0.254 | MTT assay result, run 5 ([1]; 48 hours): 0.278 | MTT assay result, run 6 ([1]; 48 hours): 0.255 | MTT assay result, run 7 ([1]; 48 hours): 0.274 | rel amt (relative value set to the control) ([1]; 120 hours (5 days)): 72 | MTT assay result, av-blank ([1]; 120 hours (5 days)): 0.417 | MTT assay result, av ([1]; 120 hours (5 days), average of 7 runs): 0.472 | MTT assay result, run 1 ([1]; 120 hours (5 days)): 0.468 | MTT assay result, run 2 ([1]; 120 hours (5 days)): 0.512 | MTT assay result, run 3 ([1]; 120 hours (5 days)): 0.495 | MTT assay result, run 4 ([1]; 120 hours (5 days)): 0.481 | MTT assay result, run 5 ([1]; 120 hours (5 days)): 0.457 | MTT assay result, run 6 ([1]; 120 hours (5 days)): 0.483 | MTT assay result, run 7 ([1]; 120 hours (5 days)): 0.411 | rel amnt (relative value set to the control) ([2]; 24 hours): 99 | MTS assay result, run 1 ([2]; 24 hours): 0.164 | MTS assay result, run 2 ([2]; 24 hours): 0.168 | MTS assay result, run 3 ([2]; 24 hours): 0.167 | MTS assay result, run 4 ([2]; 24 hours): 0.123 | MTS assay result, run 5 ([2]; 24 hours): 0.138 | MTS assay result, run 6 ([2]; 24 hours): 0.143 | MTS assay result, run 7 ([2]; 24 hours): 0.126 | MTS assay result, run 8 ([2]; 24 hours): 0.134 | MTS assay result, run 9 ([2]; 24 hours): 0.145 | rel amnt (relative value set to the control) ([2]; 48 hours): 68 | MTS assay result, run 1 ([2]; 48 hours): 0.108 | MTS assay result, run 2 ([2]; 48 hours): 0.093 | MTS assay result, run 3 ([2]; 48 hours): 0.09 | MTS assay result, run 4 ([2]; 48 hours): 0.104 | MTS assay result, run 5 ([2]; 48 hours): 0.109 | MTS assay result, run 6 ([2]; 48 hours): 0.117 | MTS assay result, run 7 ([2]; 48 hours): 0.1 | MTS assay result, run 8 ([2]; 48 hours): 0.102 | MTS assay result, run 9 ([2]; 48 hours): 0.104 | rel amnt (relative value set to the control) ([2]; 72 hours): 69 | MTS assay result, run 1 ([2]; 72 hours): 0.349 | MTS assay result, run 2 ([2]; 72 hours): 0.316 | MTS assay result, run 3 ([2]; 72 hours): 0.33 | MTS assay result, run 4 ([2]; 72 hours): 0.298 | MTS assay result, run 5 ([2]; 72 hours): 0.323 | MTS assay result, run 6 ([2]; 72 hours): 0.287 | MTS assay result, run 7 ([2]; 72 hours): 0.28 | MTS assay result, run 8 ([2]; 72 hours): 0.275 | MTS assay result, run 9 ([2]; 72 hours): 0.307 | rel amt (relative value set to the control) ([3]; 24 hours): 79 | MTS assay result, run 1 ([3]; 24 hours): 0.17 | MTS assay result, run 2 ([3]; 24 hours): 0.179 | MTS assay result, run 3 ([3]; 24 hours): 0.184 | MTS assay result, run 4 ([3]; 24 hours): 0.152 | MTS assay result, run 5 ([3]; 24 hours): 0.172 | MTS assay result, run 6 ([3]; 24 hours): 0.182 | MTS assay result, run 7 ([3]; 24 hours): 0.179 | MTS assay result, run 8 ([3]; 24 hours): 0.19 | MTS assay result, run 9 ([3]; 24 hours): 0.176 | rel amt (relative value set to the control) ([3]; 48 hours): 61 | MTS assay result, run 1 ([3]; 48 hours): 0.193 | MTS assay result, run 2 ([3]; 48 hours): 0.137 | MTS assay result, run 3 ([3]; 48 hours): 0.227 | MTS assay result, run 4 ([3]; 48 hours): 0.223 | MTS assay result, run 5 ([3]; 48 hours): 0.231 | MTS assay result, run 6 ([3]; 48 hours): 0.272 | MTS assay result, run 7 ([3]; 48 hours): 0.225 | MTS assay result, run 8 ([3]; 48 hours): 0.27 | MTS assay result, run 9 ([3]; 48 hours): 0.222 | rel amt (relative value set to the control) ([3]; 72 hours): 69 | MTS assay result, run 1 ([3]; 72 hours): 0.349 | MTS assay result, run 2 ([3]; 72 hours): 0.316 | MTS assay result, run 3 ([3]; 72 hours): 0.328 | MTS assay result, run 4 ([3]; 72 hours): 0.298 | MTS assay result, run 5 ([3]; 72 hours): 0.323 | MTS assay result, run 6 ([3]; 72 hours): 0.287 | MTS assay result, run 7 ([3]; 72 hours): 0.281 | MTS assay result, run 8 ([3]; 72 hours): 0.275 | MTS assay result, run 9 ([3]; 72 hours): 0.307
